The target in one series is T1, NE uptake (Rattus norvegicus, UniProt Q63380).
T1 construct: norepinephrine (NE) and dopamine into similarly prepared synaptosomes; from tissue; host or cells: rat brain synaptosomes
Description: Inhibition of norepinephrine reuptake into rat brain synaptosomes. The class given is biochemical. As to conditions: functional monoamine uptake.

In the next series the test system is cytochrome P450 enzymes. As to conditions: P450 4A, 2C19, 2D6, 1A2, 2C9, 2E1; cited from earlier work.
The subject of series [1] is receptors for various neurotransmitters, enzymes, other reuptake sites. As to conditions: acetylcholine, histamine, norepinephrine, dopamine receptors, monoamine oxidase; cited from earlier work.
The next series addresses T2, 5-HT uptake (Rattus norvegicus, UniProt P31652).
T2 construct: synaptosomes prepared from various regions of rat brains; from tissue; host or cells: rat brain synaptosomes
Kind of series: Inhibition of reuptake of radiolabeled serotonin into rat brain synaptosomes. The format is biochemical. As to conditions: functional monoamine uptake.

Another series deals with T3, DA uptake (Rattus norvegicus, UniProt P23977).
T3 construct: norepinephrine (NE) and dopamine into similarly prepared synaptosomes; from tissue; host or cells: rat brain synaptosomes
Description: Inhibition of dopamine reuptake into rat brain synaptosomes. The class given is biochemical. To be noted: functional monoamine uptake.

Series [2] addresses 5-HT Transporter (Rattus norvegicus, UniProt P31652). Kind of series: Rat 5-HT transporter IC50/Ki. The format is binding.
In a further series the target is NE Transporter (Homo sapiens, UniProt P23975). Kind of series: Human NE transporter IC50/Ki. The class given is binding.
Another series has as its target DA Transporter (Homo sapiens, UniProt Q01959). The format is binding.
Series [3] deals with 5-HT Transporter (Homo sapiens, UniProt P31645). The class given is binding.
For series [4] the following is noted: Sanchez and Hyttel 1999; cited from earlier work.

Sequence of NE Transporter (P23975 whole entry): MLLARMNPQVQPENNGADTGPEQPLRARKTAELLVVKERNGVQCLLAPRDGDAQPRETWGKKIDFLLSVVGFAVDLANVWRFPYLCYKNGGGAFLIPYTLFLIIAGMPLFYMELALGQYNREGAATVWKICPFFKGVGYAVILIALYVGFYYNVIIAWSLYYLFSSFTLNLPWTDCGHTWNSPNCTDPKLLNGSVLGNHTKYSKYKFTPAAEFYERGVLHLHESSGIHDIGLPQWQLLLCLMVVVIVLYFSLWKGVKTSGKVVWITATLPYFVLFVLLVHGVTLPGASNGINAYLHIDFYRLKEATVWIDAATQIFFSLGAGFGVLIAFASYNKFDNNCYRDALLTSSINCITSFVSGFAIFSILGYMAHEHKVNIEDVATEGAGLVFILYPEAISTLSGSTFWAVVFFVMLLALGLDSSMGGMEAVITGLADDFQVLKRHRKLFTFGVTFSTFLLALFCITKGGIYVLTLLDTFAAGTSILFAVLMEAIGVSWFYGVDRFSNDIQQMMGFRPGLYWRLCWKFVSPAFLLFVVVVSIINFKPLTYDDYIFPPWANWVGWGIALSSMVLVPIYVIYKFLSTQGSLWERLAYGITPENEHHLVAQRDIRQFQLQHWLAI
Sequence of DA Transporter (Q01959 whole entry): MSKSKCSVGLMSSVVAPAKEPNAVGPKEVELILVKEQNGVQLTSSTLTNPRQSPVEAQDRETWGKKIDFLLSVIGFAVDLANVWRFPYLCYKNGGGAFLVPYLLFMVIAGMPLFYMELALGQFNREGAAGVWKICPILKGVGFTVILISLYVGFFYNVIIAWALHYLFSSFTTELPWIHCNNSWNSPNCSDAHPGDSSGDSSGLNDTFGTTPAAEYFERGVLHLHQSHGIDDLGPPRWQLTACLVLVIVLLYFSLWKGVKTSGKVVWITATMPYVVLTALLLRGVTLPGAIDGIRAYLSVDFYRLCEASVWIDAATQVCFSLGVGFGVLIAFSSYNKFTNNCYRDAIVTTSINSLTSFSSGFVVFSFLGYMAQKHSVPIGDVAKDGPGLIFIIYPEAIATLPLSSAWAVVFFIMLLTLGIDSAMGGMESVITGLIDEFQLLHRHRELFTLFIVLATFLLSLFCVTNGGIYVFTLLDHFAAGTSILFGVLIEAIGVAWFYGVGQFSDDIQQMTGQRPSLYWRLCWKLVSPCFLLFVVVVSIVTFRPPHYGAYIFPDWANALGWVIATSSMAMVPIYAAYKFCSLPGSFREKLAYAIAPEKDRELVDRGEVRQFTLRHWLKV
Sequence of 5-HT Transporter (Homo sapiens, UniProt P31645) (P31645 whole entry): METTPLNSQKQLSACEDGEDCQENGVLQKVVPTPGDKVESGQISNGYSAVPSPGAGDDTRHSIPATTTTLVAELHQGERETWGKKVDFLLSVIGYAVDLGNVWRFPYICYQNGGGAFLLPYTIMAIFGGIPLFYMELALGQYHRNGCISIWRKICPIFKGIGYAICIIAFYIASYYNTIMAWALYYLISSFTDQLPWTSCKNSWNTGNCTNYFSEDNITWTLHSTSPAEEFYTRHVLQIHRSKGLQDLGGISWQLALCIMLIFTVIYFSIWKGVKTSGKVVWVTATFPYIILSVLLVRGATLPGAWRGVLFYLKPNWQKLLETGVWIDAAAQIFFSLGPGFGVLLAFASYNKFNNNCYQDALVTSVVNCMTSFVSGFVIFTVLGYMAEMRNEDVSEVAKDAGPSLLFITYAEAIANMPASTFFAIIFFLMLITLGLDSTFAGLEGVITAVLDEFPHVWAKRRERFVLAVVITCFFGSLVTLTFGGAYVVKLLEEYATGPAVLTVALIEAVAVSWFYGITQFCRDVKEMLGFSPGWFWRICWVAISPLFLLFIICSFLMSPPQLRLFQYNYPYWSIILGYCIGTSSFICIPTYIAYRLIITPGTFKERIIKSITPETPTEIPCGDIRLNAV
T1 sequence (Q63380 1-617): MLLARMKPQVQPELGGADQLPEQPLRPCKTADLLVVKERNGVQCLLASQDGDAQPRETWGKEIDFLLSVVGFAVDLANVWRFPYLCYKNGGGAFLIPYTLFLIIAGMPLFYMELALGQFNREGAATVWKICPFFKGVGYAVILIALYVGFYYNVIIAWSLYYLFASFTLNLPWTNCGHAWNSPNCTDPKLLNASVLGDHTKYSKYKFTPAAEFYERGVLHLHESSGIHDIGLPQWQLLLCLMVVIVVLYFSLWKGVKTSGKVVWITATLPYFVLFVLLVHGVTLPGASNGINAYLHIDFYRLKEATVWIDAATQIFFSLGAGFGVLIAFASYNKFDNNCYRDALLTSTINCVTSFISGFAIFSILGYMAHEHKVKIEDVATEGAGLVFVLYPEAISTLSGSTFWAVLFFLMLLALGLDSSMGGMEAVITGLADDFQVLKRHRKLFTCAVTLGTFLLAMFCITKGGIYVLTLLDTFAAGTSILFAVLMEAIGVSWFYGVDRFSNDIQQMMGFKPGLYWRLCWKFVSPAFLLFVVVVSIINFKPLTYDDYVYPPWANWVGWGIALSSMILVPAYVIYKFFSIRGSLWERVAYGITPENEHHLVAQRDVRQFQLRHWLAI
Sequence of 5-HT Transporter (Rattus norvegicus, UniProt P31652) (P31652 whole entry): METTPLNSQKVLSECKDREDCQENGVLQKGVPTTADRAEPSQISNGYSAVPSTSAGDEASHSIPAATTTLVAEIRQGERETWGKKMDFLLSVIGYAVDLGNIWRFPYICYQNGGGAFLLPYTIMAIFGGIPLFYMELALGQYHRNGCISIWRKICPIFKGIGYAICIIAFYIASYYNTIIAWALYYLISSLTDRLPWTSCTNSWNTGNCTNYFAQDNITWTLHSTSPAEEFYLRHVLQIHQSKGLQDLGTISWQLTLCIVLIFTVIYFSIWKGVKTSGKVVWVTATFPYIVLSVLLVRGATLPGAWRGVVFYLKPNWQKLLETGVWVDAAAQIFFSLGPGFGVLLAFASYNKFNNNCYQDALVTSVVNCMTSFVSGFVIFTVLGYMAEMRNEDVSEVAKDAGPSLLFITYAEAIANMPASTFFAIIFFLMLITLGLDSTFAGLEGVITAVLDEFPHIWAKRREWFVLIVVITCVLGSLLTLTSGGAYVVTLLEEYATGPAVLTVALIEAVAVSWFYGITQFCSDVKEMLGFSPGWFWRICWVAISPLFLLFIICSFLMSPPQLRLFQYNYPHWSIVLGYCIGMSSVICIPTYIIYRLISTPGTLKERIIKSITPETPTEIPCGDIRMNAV
T2 sequence (P31652 whole entry): as above
T3 sequence (P23977 whole entry): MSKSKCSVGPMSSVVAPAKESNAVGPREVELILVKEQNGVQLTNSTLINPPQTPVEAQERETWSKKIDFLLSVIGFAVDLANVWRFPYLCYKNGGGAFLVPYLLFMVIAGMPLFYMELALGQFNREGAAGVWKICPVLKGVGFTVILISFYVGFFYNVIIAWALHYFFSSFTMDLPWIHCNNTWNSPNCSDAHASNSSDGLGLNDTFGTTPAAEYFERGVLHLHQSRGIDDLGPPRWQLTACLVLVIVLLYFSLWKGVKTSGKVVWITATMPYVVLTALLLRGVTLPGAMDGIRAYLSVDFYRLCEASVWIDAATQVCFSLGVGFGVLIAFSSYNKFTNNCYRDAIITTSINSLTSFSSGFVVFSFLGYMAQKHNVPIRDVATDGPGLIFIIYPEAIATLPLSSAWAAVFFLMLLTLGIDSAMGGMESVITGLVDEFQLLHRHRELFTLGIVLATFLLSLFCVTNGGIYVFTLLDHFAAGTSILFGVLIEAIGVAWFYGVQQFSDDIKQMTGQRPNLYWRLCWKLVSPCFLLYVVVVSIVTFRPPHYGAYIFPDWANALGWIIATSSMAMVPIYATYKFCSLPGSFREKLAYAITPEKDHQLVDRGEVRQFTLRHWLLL

`CN(C)CCCC1(c2ccc(F)cc2)OCc2cc(C#N)ccc21` (racemic) [Racemic Citalopram, (±)-1-(3-dimethylaminopropyl)-1-(4-fluorophenyl)-1,3-dihydroisobenzofuran-5-carbonitrile, reference compound] returned an IC50 against NE uptake of 4.9 µM. Further, the “inhibition of cytochrome P450 enzyme activity (not by more than)” value in the series with cytochrome P450 enzymes is recorded as “mild degree”. Further, the “affinity for neurotransmitter receptors, enzymes and other reuptake sites” value in series [1] was “negligible affinity”.
Regarding `CNCCCC1(c2ccc(F)cc2)OCc2cc(C#N)ccc21` (racemic) [desmethylcitalopram, (±)-1-(3-methylaminopropyl)-1-(4-fluorophenyl)-1,3-dihydroisobenzofuran-5-carbonitrile], the “inhibition of cytochrome P450 enzyme activity (not by more than)” value with cytochrome P450 enzymes was “mild degree”.
As to `CNCCCC1(c2ccc(F)cc2)OCc2cc(C#N)ccc21` (single isomer, unassigned; (+)) [(+)-Desmethylcitalopram], the IC50 turned out to be 5.8 nM on 5-HT uptake; 4.1 µM at NE uptake; 7.6 µM at DA uptake; 1.3 nM on 5-HT Transporter [2]; 10.3 µM against NE Transporter; 27.7 µM on DA Transporter. In addition, the results for the Ki on 5-HT Transporter [2], on NE Transporter and on DA Transporter were 0.27 nM, 9.57 µM and 12.7 µM, respectively.
With `N#Cc1ccc2c(c1)COC2(CCCN)c1ccc(F)cc1` (single isomer, unassigned; (+)) [(+)-Didesmethylcitalopram], the IC50 was found to be 180 nM against 5-HT uptake; 3.3 µM at NE uptake; 11 µM on DA uptake; 19 nM against 5-HT Transporter [2]; 219 nM against 5-HT Transporter [3]; 24.2 µM against NE Transporter. The molecule further came in with an IC50 against DA Transporter of 54.7 µM. Also, the inhibition constant (Ki) on 5-HT Transporter [2] is 3.9 nM; at 5-HT Transporter [3] it was 90 nM; on NE Transporter, 22.4 µM; at DA Transporter, 25 µM. Moreover, the “half-lives compared to citalopram” value in [4] is recorded as “measurably longer”.
For `N#Cc1ccc2c(c1)COC2(CCCN)c1ccc(F)cc1` (single isomer, unassigned; (-)) [(−)-Didesmethylcitalopram], the IC50 at 5-HT uptake amounted to 130 nM; against NE uptake, 1.3 µM; against DA uptake, 2.7 µM; at 5-HT Transporter [2], 27 nM; at 5-HT Transporter [3], 14 nM; against NE Transporter, 5.52 µM. In addition, the IC50 on DA Transporter was found to be 38.9 µM. For the same molecule, the Ki amounted to 5.5 nM at 5-HT Transporter [2], 5.8 nM on 5-HT Transporter [3], 5.12 µM on NE Transporter and 17.8 µM on DA Transporter. The “half-lives compared to citalopram” value in series [4] is given as “measurably longer”.
Turning to (−)-Desmethylcitalopram, the IC50 against 5-HT uptake is 110 nM; against NE uptake it was 1.7 µM; at DA uptake, 9.4 µM; at 5-HT Transporter [2], 11 nM; against 5-HT Transporter [3] it was 42 nM; against NE Transporter, 0.815 µM. The molecule further showed an IC50 at DA Transporter of 37.6 µM. Moreover, the inhibition constant (Ki) turned out to be 2.3 nM on 5-HT Transporter [2], 17 nM at 5-HT Transporter [3], 0.756 µM on NE Transporter and 17.1 µM on DA Transporter. The “half-lives compared to citalopram” value in series [4] is “measurably longer”.
